US7491489B2 (priority 2004, dated 2009)
In brackets after ≈: the same amount, converted by molar mass.

Columns and labels:
SARS-CoV GZ50 strain [1] = system: SARS-CoV GZ50 strain
SARS-CoV GZ50 strain [2] = format: cell-based

## CC[C@H](C)[C@H](NC(=O)[C@H](C)NC(=O)[C@@H](NC(=O)[C@H](CO)NC(=O)[C@@H](NC(=O)[C@H](CC(=O)O)NC(=O)[C@@H](NC(=O)[C@H](CS)NC(=O)[C@H](CC(N)=O)NC(=O)[C@@H](NC(=O)[C@H](CC(=O)O)NC(=O)[C@H](CCC(N)=O)NC(=O)[C@@H](N)Cc1ccc(O)cc1)C(C)C)[C@@H](C)O)C(C)C)[C@@H](C)O)C(=O)N[C@@H](Cc1c[nH]cn1)C(=O)N[C@@H](C)C(=O)N[C@@H](CC(=O)O)C(=O)N[C@@H](CCC(N)=O)C(=O)N[C@@H](CC(C)C)C(=O)N[C@H](C(=O)N1CCC[C@H]1C(=O)O)[C@@H](C)O [P6]
SARS-CoV GZ50 strain [1]
  IC90 (peptide concentration that reduced the viral titer by 90% relative to untreated control): 113.0 µg/mL (≈ 51.6 µM)
  Released viral titer relative to untreated control: 18 % of the control
SARS-CoV GZ50 strain [2]
  Intracellular viral RNA levels: reduced

## CC[C@H](C)[C@H](NC(=O)[C@H](CCC(=O)O)NC(=O)[C@H](CO)NC(=O)[C@@H](NC(=O)[C@H](CCCCN)NC(=O)[C@@H]1CCCN1C(=O)[C@H](CC(=O)O)NC(=O)[C@H](CCCNC(=N)N)NC(=O)[C@@H](NC(=O)[C@H](CO)NC(=O)[C@H](CC(=O)O)NC(=O)[C@@H](NC(=O)[C@H](Cc1ccccc1)NC(=O)[C@H](CC(=O)O)NC(=O)[C@H](CO)NC(=O)[C@@H](NC(=O)[C@H](CC(=O)O)NC(=O)[C@@H](N)CCCNC(=N)N)C(C)C)[C@@H](C)O)C(C)C)[C@@H](C)O)C(=O)N[C@@H](CC(C)C)C(=O)N[C@@H](CC(=O)O)C(=O)O [P5]
SARS-CoV GZ50 strain [1]
  IC90 (peptide concentration that reduced the viral titer by 90% relative to untreated control): >500 µg/mL

## CC[C@H](C)[C@H](NC(=O)CNC(=O)[C@H](CC(C)C)NC(=O)[C@@H]1CCCN1C(=O)[C@H](CC(C)C)NC(=O)[C@H](CCCCN)NC(=O)[C@@H](N)Cc1ccccc1)C(=O)N[C@@H](CC(N)=O)C(=O)N[C@H](C(=O)N[C@H](C(=O)N[C@@H](CC(N)=O)C(=O)N[C@@H](Cc1ccccc1)C(=O)N[C@@H](CCCNC(=N)N)C(=O)N[C@@H](C)C(=O)N[C@H](C(=O)N[C@@H](CC(C)C)C(=O)N[C@H](C(=O)N[C@@H](C)C(=O)N[C@@H](Cc1ccccc1)C(=O)N[C@@H](CO)C(=O)O)[C@@H](C)O)[C@@H](C)CC)[C@@H](C)O)[C@@H](C)CC [P1]
SARS-CoV GZ50 strain [1]
  IC90 (peptide concentration that reduced the viral titer by 90% relative to untreated control): >500 µg/mL

## CC[C@H](C)[C@H](NC(=O)CNC(=O)[C@H](CO)NC(=O)[C@@H](NC(=O)[C@@H](NC(=O)[C@H](Cc1ccc(O)cc1)NC(=O)[C@H](Cc1ccccc1)NC(=O)CNC(=O)[C@H](Cc1ccc(O)cc1)NC(=O)[C@H](CC(=O)O)NC(=O)[C@H](CC(N)=O)NC(=O)[C@H](CC(C)C)NC(=O)[C@@H]1CCCN1C(=O)[C@H](Cc1c[nH]c2ccccc12)NC(=O)[C@H](Cc1ccc(O)cc1)NC(=O)[C@H](CS)NC(=O)[C@H](CC(N)=O)NC(=O)[C@H](CC(C)C)NC(=O)[C@H](C)NC(=O)[C@@H]1CCCN1)[C@@H](C)O)[C@@H](C)O)C(=O)O [P4]
SARS-CoV GZ50 strain [1]
  IC90 (peptide concentration that reduced the viral titer by 90% relative to untreated control): >500 µg/mL

## CC(C)C[C@H](NC(=O)[C@@H](N)C(C)C)C(=O)N[C@@H](Cc1ccc(O)cc1)C(=O)N[C@@H](CC(N)=O)C(=O)N[C@@H](CO)C(=O)N[C@H](C(=O)N[C@@H](Cc1ccccc1)C(=O)N[C@@H](Cc1ccccc1)C(=O)N[C@@H](CO)C(=O)N[C@H](C(=O)N[C@@H](Cc1ccccc1)C(=O)N[C@@H](CCCCN)C(=O)N[C@@H](CS)C(=O)N[C@@H](Cc1ccc(O)cc1)C(=O)NCC(=O)N[C@H](C(=O)N[C@@H](CO)C(=O)N[C@@H](C)C(=O)N[C@H](C(=O)N[C@@H](CCCCN)C(=O)O)[C@@H](C)O)C(C)C)[C@@H](C)O)[C@@H](C)O [P3]
SARS-CoV GZ50 strain [1]
  IC90 (peptide concentration that reduced the viral titer by 90% relative to untreated control): >500 µg/mL

## CC[C@H](C)[C@H](NC(=O)[C@H](CO)NC(=O)[C@H](Cc1ccccc1)NC(=O)[C@H](CC(N)=O)NC(=O)[C@@H](NC(=O)[C@@H]1CCCN1C(=O)[C@@H](NC(=O)[C@H](C)NC(=O)[C@@H](NC(=O)[C@@H](NC(=O)[C@H](CC(N)=O)NC(=O)[C@H](CC(N)=O)NC(=O)[C@@H](N)CO)[C@@H](C)O)[C@@H](C)CC)[C@@H](C)CC)[C@@H](C)O)C(=O)N[C@@H](CO)C(=O)N[C@H](C(=O)N[C@H](C(=O)N[C@H](C(=O)N[C@@H](CCC(=O)O)C(=O)N[C@H](C(=O)N[C@@H](CCSC)C(=O)O)C(C)C)[C@@H](C)O)[C@@H](C)O)[C@@H](C)CC [P7]
SARS-CoV GZ50 strain [1]
  IC90 (peptide concentration that reduced the viral titer by 90% relative to untreated control): >500 µg/mL

## CC[C@H](C)[C@H](NC(=O)CN)C(=O)NCC(=O)N[C@H](C(=O)N[C@H](C(=O)N[C@@H](CCC(N)=O)C(=O)N[C@@H](CC(N)=O)C(=O)N[C@H](C(=O)N[C@@H](CC(C)C)C(=O)N[C@@H](Cc1ccc(O)cc1)C(=O)N[C@@H](CCC(=O)O)C(=O)N[C@@H](CC(N)=O)C(=O)N[C@@H](CCC(N)=O)C(=O)N[C@@H](CCCCN)C(=O)N[C@@H](CCC(N)=O)C(=O)N[C@H](C(=O)N[C@@H](C)C(=O)N[C@@H](CC(N)=O)C(=O)N[C@@H](CCC(N)=O)C(=O)N[C@@H](Cc1ccccc1)C(=O)O)[C@@H](C)CC)C(C)C)[C@@H](C)O)C(C)C [P9]
SARS-CoV GZ50 strain [1]
  IC90 (peptide concentration that reduced the viral titer by 90% relative to untreated control): >500 µg/mL

## CC[C@H](C)[C@H](NC(=O)CNC(=O)[C@H](CO)NC(=O)[C@H](CC(C)C)NC(=O)[C@H](C)NC(=O)[C@H](CCCNC(=N)N)NC(=O)[C@H](CC(N)=O)NC(=O)[C@H](CC(C)C)NC(=O)[C@H](CCC(N)=O)NC(=O)[C@@H](NC(=O)[C@H](CS)NC(=O)[C@H](Cc1ccccc1)NC(=O)[C@H](CO)NC(=O)CNC(=O)[C@H](Cc1ccc(O)cc1)NC(=O)[C@@H](N)CCC(N)=O)[C@@H](C)O)C(=O)N[C@@H](C)C(=O)N[C@@H](C)C(=O)N[C@@H](CCC(=O)O)C(=O)N[C@@H](CCC(N)=O)C(=O)O [P8]
SARS-CoV GZ50 strain [1]
  IC90 (peptide concentration that reduced the viral titer by 90% relative to untreated control): 24.9 µg/mL (≈ 11.5 µM)
FRhK-4 cells
  Cytotoxic effects on peptide-treated cells: None of the 10 peptide-treated cells exhibited cytotoxic effects

## CC[C@H](C)[C@H](NC(=O)[C@@H](NC(=O)CNC(=O)[C@H](CC(N)=O)NC(=O)[C@H](CCC(=O)O)NC(=O)[C@H](CC(=O)O)NC(=O)[C@H](Cc1ccc(O)cc1)NC(=O)[C@H](CCCCN)NC(=O)[C@H](CC(C)C)NC(=O)[C@H](CCSC)NC(=O)[C@H](Cc1ccccc1)NC(=O)[C@@H](NC(=O)[C@@H](NC(=O)[C@@H]1CCCN1)[C@@H](C)O)[C@@H](C)O)[C@@H](C)O)C(=O)N[C@H](C(=O)N[C@@H](CC(=O)O)C(=O)N[C@@H](C)C(=O)N[C@H](C(=O)N[C@@H](CC(=O)O)C(=O)N[C@@H](CS)C(=O)O)C(C)C)[C@@H](C)O [P2]
SARS-CoV GZ50 strain [1]
  IC90 (peptide concentration that reduced the viral titer by 90% relative to untreated control): 112.5 ± 26.3 µg/mL (≈ 50.3 µM)
  Released viral titer relative to untreated control: 18 % of the control
SARS-CoV GZ50 strain [2]
  Intracellular viral RNA levels: reduced
